20 compounds from patent publication US9120749B2, “Quinoline derivatives and MELK inhibitors containing the same” (ONCOTHERAPY SCIENCE, INC., priority 2010, dated 2015) can be followed below.

Where a name gives a salt, the structure may show the parent alone. Read-outs that look alike come from different tables or passages of the source.

The term IC50 denotes the concentration at which inhibition is half-maximal.

One assay concerns the target MELK (Homo sapiens, UniProt Q14680). As to the kind of experiment: Kinase assay: MELK activity, phosphorylation of FITC-labeled histone H3 peptide measured by IMAP fluorescence polarization. The conditions noted are these: read-out: IC50 (μM) (kinase assay). It is filed as biochemical. The method in brief: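 Polarization of fluorescence served as the signal for MELK turnover of FITC-conjugated histone H3 peptide. Binding solution quenched each reaction, and plates stood 0.5 hour at room temperature before reading.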

In the next assay the test system is A549 cells. Description: Cell-based assay: anti-proliferative activity, Cell Counting Kit-8, 72 hours (A549). To be noted: 72 hours. The method in brief:
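Cell Counting Kit-8 read-out of A549 growth after 72 hours of inhibitor exposure, cells plated in 96-well format. Values reported as IC50.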
On the technique in general: Tetrazolium assays rely on reduction of a dye to a coloured formazan, in cell work by metabolically active cells.

The subject of another assay is HT-1197 cells. Description: Cell-based assay: anti-proliferative activity, Cell Counting Kit-8, 72 hours (HT-1197, negative control without MELK expression). The conditions noted are these: Homo sapiens, HT1197, 72 h, HT1197 cells (negative control, no MELK expression), 72 hours. The method in brief:
(§1)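 Target-specific cytotoxicity: seeded cells treated with MELK inhibitor candidates for 72 h, proliferation quantified via CCK-8, IC50 fitted.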

For the next assay, the system named is T47D cells. As to the kind of experiment: Cell-based assay: anti-proliferative activity, Cell Counting Kit-8, 72 hours (T47D). To be noted: Homo sapiens, T47D, 72 h. The method in brief: as §1
The next assay deals with DU4475 cells. Description: Cell-based assay: anti-proliferative activity, Cell Counting Kit-8, 72 hours (DU4475).

MELK, sequence (Q14680 whole entry, looked up): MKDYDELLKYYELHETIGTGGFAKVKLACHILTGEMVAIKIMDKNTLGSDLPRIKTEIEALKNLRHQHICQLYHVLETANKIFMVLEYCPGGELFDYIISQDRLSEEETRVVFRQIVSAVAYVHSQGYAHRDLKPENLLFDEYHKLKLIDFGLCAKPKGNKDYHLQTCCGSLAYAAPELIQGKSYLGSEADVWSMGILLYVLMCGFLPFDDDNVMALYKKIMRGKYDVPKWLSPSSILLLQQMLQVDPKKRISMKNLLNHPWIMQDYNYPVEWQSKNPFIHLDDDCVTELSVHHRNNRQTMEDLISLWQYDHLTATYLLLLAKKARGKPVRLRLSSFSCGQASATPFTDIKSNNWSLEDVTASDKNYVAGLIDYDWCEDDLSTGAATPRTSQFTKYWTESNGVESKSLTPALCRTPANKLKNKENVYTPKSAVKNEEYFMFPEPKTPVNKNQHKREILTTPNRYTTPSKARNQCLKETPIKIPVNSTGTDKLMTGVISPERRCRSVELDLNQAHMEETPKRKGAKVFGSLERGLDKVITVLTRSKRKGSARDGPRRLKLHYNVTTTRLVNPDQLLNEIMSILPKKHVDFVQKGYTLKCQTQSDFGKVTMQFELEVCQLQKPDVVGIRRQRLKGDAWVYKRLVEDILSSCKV

Regarding `O=C(c1cnc2ccc(-c3cc(F)c(O)c(Cl)c3)cc2c1Nc1ccc(CN2CCCC2)nc1)C1CC1` [Example 672, (6-(3-chloro-5-fluoro-4-hydroxyphenyl)-4-(6-(pyrrolidin-1-ylmethyl)pyridin-3-ylamino)quinolin-3-yl)(cyclopropyl)methanone], the IC50 at MELK is 0.014 µM; with A549 cells (Homo sapiens, A549, 72 h) it was 0.17 µM; with HT-1197 cells, 3.2 µM; in the assay with T47D cells, 0.39 µM; in the assay with DU4475 cells (Homo sapiens, DU-4475, 72 h), 0.16 µM.

Consider `COc1cc(-c2ccc3ncc(C(=O)C4CC4)c(Nc4ccc(C(O)CN(C)C)cc4)c3c2)cc(Cl)c1O` (stereo not shown) [Example 708, (6-(3-chloro-4-hydroxy-5-methoxyphenyl)-4-(4-(2-(dimethylamino)-1-hydroxyethyl)phenylamino)quinolin-3-yl)(cyclopropyl)methanone], for which the 50% inhibitory concentration (IC50) on MELK amounted to 0.0065 µM; with A549 cells (Homo sapiens, A549, 72 h), 0.3 µM; in the assay with HT-1197 cells it was 4.6 µM; with T47D cells, 0.41 µM; with DU4475 cells (Homo sapiens, DU-4475, 72 h), 0.25 µM.

On to `CC(=O)c1cnc2ccc(-c3cc(F)c(O)c(Cl)c3)cc2c1Nc1ccc(CCN(C)C)cc1` [Example 745, 1-(6-(3-chloro-5-fluoro-4-hydroxyphenyl)-4-(4-(2-(dimethylamino)ethyl)phenylamino)quinolin-3-yl)ethanone], for which the IC50 amounted to 0.0083 µM at MELK; 0.16 µM with A549 cells (Homo sapiens, A549, 72 h); 0.99 µM in the assay on HT-1197 cells; 0.12 µM in the assay on T47D cells; 0.063 µM with DU4475 cells (Homo sapiens, DU-4475, 72 h).

As to `NCCOc1ccc(Nc2c(C(=O)C3CC3)cnc3ccc(-c4cc(Cl)c(O)c(Cl)c4)cc23)cn1` [Example 723, (4-(6-(2-Aminoethoxy)pyridin-3-ylamino)-6-(3,5-dichloro-4-hydroxyphenyl)quinolin-3-yl)(cyclopropyl)methanone], the half-inhibitory concentration (IC50) on MELK stood at 0.0019 µM; with A549 cells (Homo sapiens, A549, 72 h), 0.23 µM; with HT-1197 cells, 2.1 µM; in the assay on T47D cells, 0.099 µM; in the assay on DU4475 cells (Homo sapiens, DU-4475, 72 h), 0.028 µM.

For the compound `COc1cc(-c2ccc3ncc(C(=O)C4CC4)c(Nc4ccc(OCCN)nc4)c3c2)cc(Cl)c1O` [Example 722, (4-(6-(2-aminoethoxy)pyridin-3-ylamino)-6-(3-chloro-4-hydroxy-5-methoxyphenyl)quinolin-3-yl)(cyclopropyl)methanone], the 50% inhibitory concentration (IC50) was found to be 0.0043 µM on MELK; 0.32 µM in the assay with A549 cells (Homo sapiens, A549, 72 h); 2.3 µM with HT-1197 cells; 0.19 µM with T47D cells; 0.19 µM in the assay with DU4475 cells (Homo sapiens, DU-4475, 72 h).

In the case of `CC(C)C(=O)c1cnc2ccc(-c3cc(Cl)c(O)c(Cl)c3)cc2c1Nc1ccc(CN(C)C)cc1` [Example 641, 1-(6-(3,5-dichloro-4-hydroxyphenyl)-4-(4-((dimethylamino)methyl)phenylamino)quinolin-3-yl)-2-methylpropan-1-one], the 50% inhibitory concentration (IC50) on MELK was 0.0076 µM; with A549 cells (Homo sapiens, A549, 72 h) it was 0.23 µM; in the assay with HT-1197 cells, 0.74 µM; in the assay with T47D cells, 0.22 µM; in the assay on DU4475 cells (Homo sapiens, DU-4475, 72 h), 0.097 µM.

On to `NCCOc1ccc(Nc2c(C(=O)C3CC3)cnc3ccc(-c4cc(F)c(O)c(Cl)c4)cc23)cn1` [Example 724, (4-(6-(2-Aminoethoxy)pyridin-3-ylamino)-6-(3-chloro-5-fluoro-4-hydroxyphenyl)quinolin-3-yl)(cyclopropyl)methanone], for which the IC50 on MELK is 0.0055 µM; with A549 cells (Homo sapiens, A549, 72 h) it was 0.23 µM; in the assay with HT-1197 cells it was 2.8 µM; in the assay on T47D cells it was 0.07 µM; with DU4475 cells (Homo sapiens, DU-4475, 72 h), 0.035 µM.

As to `CCC(=O)c1cnc2ccc(-c3cc(Cl)c(O)c(Cl)c3)cc2c1Nc1ccc(N2CCN(C)CC2)nc1` [Example 737, 1-(6-(3,5-dichloro-4-hydroxyphenyl)-4-(6-(4-methylpiperazin-1-yl)pyridin-3-ylamino)quinolin-3-yl)propan-1-one], the IC50 came out at 0.055 µM on MELK; 0.29 µM with A549 cells (Homo sapiens, A549, 72 h); 10 µM in the assay on HT-1197 cells; 0.31 µM in the assay with T47D cells; 0.27 µM in the assay with DU4475 cells (Homo sapiens, DU-4475, 72 h).

`CN(C)CCc1cccc(Nc2c(C(=O)C3CC3)cnc3ccc(-c4cc(F)c(O)c(Cl)c4)cc23)c1` [Example 693, {6-(3-Chloro-5-fluoro-4-hydroxyphenyl)-4-[3-(2-(dimethylamino)ethyl)phenylamino]quinolin-3-yl}(cyclopropyl)methanone]: the IC50 on MELK was 0.0083 µM; in the assay with A549 cells (Homo sapiens, A549, 72 h), 0.09 µM; in the assay on HT-1197 cells, 10 µM; in the assay with T47D cells, 0.37 µM; with DU4475 cells (Homo sapiens, DU-4475, 72 h), 0.085 µM.

With `CN(C)C[C@]1(O)CC[C@@H](Nc2c(C(=O)C3CC3)cnc3ccc(-c4cc(Cl)c(O)c(Cl)c4)cc23)CC1` [Example 652, cyclopropyl(6-(3,5-dichloro-4-hydroxyphenyl)-4-((cis-4-((dimethylamino)methyl)-4-hydroxycyclohexyl)amino)quinolin-3-yl)methanone], the IC50 at MELK amounted to 0.0011 µM; in the assay with A549 cells (Homo sapiens, A549, 72 h) it was 0.15 µM; in the assay on HT-1197 cells it was 1.4 µM; with T47D cells, 0.15 µM; in the assay on DU4475 cells (Homo sapiens, DU-4475, 72 h) it was 0.051 µM.

Consider `N[C@H]1CCCN(c2ccc(Nc3c(C(=O)C4CC4)cnc4ccc(-c5cc(F)c(O)c(Cl)c5)cc34)cn2)C1` [Example 648, (S)-(4-(6-(3-aminopiperidin-1-yl)pyridin-3-ylamino)-6-(3-chloro-5-fluoro-4-hydroxyphenyl)quinolin-3-yl)(cyclopropyl)methanone], for which the 50% inhibitory concentration (IC50) is 0.0019 µM on MELK; 0.013 µM with A549 cells (Homo sapiens, A549, 72 h); 0.28 µM in the assay with HT-1197 cells; 0.0095 µM in the assay on T47D cells; 0.0046 µM in the assay on DU4475 cells (Homo sapiens, DU-4475, 72 h).

As to `N[C@H]1CCCN(c2ccc(Nc3c(C(=O)C4CC4)cnc4ccc(-c5cc(Cl)c(O)c(Cl)c5)cc34)cn2)C1` [Example 646, (S)-(4-(6-(3-aminopiperidin-1-yl)pyridin-3-ylamino)-6-(3,5-dichloro-4-hydroxyphenyl)quinolin-3-yl)(cyclopropyl)methanone], the half-maximal inhibitory concentration (IC50) on MELK is 0.0011 µM; with A549 cells it was 0.022 µM; in the assay on HT-1197 cells, 0.56 µM; in the assay with T47D cells it was 0.02 µM; in the assay with DU4475 cells, 0.0035 µM.

Take `CC(=O)c1cnc2ccc(-c3cc(Cl)c(O)c(Cl)c3)cc2c1Nc1ccc(N2CCCC(N)C2)nc1` (stereo not shown) [Example 681, 1-(4-(6-(3-aminopiperidin-1-yl)pyridin-3-ylamino)-6-(3,5-dichloro-4-hydroxyphenyl)quinolin-3-yl)ethanone]: the 50% inhibitory concentration (IC50) at MELK turned out to be 0.00086 µM; in the assay with A549 cells (Homo sapiens, A549, 72 h), 0.017 µM; in the assay on HT-1197 cells, 0.25 µM; with T47D cells, 0.0046 µM; in the assay with DU4475 cells (Homo sapiens, DU-4475, 72 h), 0.0085 µM.

As to `COc1cc(-c2ccc3ncc(C(=O)C4CC4)c(N[C@H]4CC[C@H](CN5CCC(O)C5)CC4)c3c2)cc(Cl)c1O` (stereo partly shown) [Example 630], the 50% inhibitory concentration (IC50) at MELK amounted to 0.0023 µM; with A549 cells (Homo sapiens, A549, 72 h) it was 0.19 µM; in the assay on HT-1197 cells it was 3.6 µM; in the assay with T47D cells it was 0.41 µM; with DU4475 cells (Homo sapiens, DU-4475, 72 h), 0.17 µM.

In the case of `O=C(c1cnc2ccc(-c3cc(F)c(O)c(Cl)c3)cc2c1NC1CCNCC1)C1CC1` [Example 719, (6-(3-chloro-5-fluoro-4-hydroxyphenyl)-4-(piperidin-4-ylamino)quinolin-3-yl)(cyclopropyl)methanone], the 50% inhibitory concentration (IC50) at MELK came to 0.0092 µM; with A549 cells (Homo sapiens, A549, 72 h), 0.69 µM; in the assay on HT-1197 cells it was 10 µM; in the assay on T47D cells it was 0.32 µM; in the assay on DU4475 cells (Homo sapiens, DU-4475, 72 h), 0.17 µM.

Take `COc1cc(-c2ccc3ncc(C(=O)C4CC4)c(NC4CCC(N5CC[C@@H](F)C5)CC4)c3c2)cc(Cl)c1O` (stereo partly drawn) [Example 645, (R)-(6-(3-chloro-4-hydroxy-5-methoxyphenyl)-4-(4-(3-fluoropyrrolidin-1-yl)cyclohexylamino)quinolin-3-yl)(cyclopropyl)methanone]: the IC50 on MELK stood at 0.0062 µM; in the assay on A549 cells (Homo sapiens, A549, 72 h), 0.33 µM; in the assay on HT-1197 cells, 2.2 µM; in the assay with T47D cells, 0.45 µM; with DU4475 cells (Homo sapiens, DU-4475, 72 h), 0.29 µM.

On to `COc1cc(-c2ccc3ncc(C(C)=O)c(Nc4ccc(N5CCNCC5)nc4)c3c2)cc(Cl)c1O` [Example 704, 1-(6-(3-chloro-4-hydroxy-5-methoxyphenyl)-4-(6-(piperazin-1-yl)pyridin-3-ylamino)quinolin-3-yl)ethanone hydrochloride], for which the half-maximal inhibitory concentration (IC50) is 0.0023 µM on MELK; 0.2 µM in the assay on A549 cells (Homo sapiens, A549, 72 h); 2.1 µM in the assay on HT-1197 cells; 0.17 µM in the assay on T47D cells; 0.12 µM with DU4475 cells (Homo sapiens, DU-4475, 72 h).

`CCC(=O)c1cnc2ccc(-c3cc(Cl)c(O)c(OC)c3)cc2c1N[C@H]1CC[C@H](CN(C)C)CC1` [Example 713]: the IC50 stood at 0.0024 µM at MELK; 0.18 µM in the assay with A549 cells (Homo sapiens, A549, 72 h); 4.9 µM in the assay on HT-1197 cells; 0.2 µM with T47D cells; 0.15 µM in the assay with DU4475 cells (Homo sapiens, DU-4475, 72 h).

In the case of `COc1cc(-c2ccc3ncc(C(=O)C4CC4)c(Nc4ccc(N5CCC(O)C5)nc4)c3c2)cc(Cl)c1O` (stereo not shown) [Example 669, (6-(3-chloro-4-hydroxy-5-methoxyphenyl)-4-(6-(3-hydroxypyrrolidin-1-yl)pyridin-3-ylamino)quinolin-3-yl)(cyclopropyl)methanone], the half-inhibitory concentration (IC50) stood at 0.012 µM at MELK; 0.46 µM with A549 cells (Homo sapiens, A549, 72 h); 4.4 µM with HT-1197 cells; 0.24 µM with T47D cells; 0.75 µM in the assay on DU4475 cells (Homo sapiens, DU-4475, 72 h).

For the compound `O=C(c1cnc2ccc(-c3cc(F)c(O)c(Cl)c3)cc2c1NC1CCC(N2CC[C@@H](F)C2)CC1)C1CC1` (stereo partly drawn) [Example 642, (R)-(6-(3-chloro-5-fluoro-4-hydroxyphenyl)-4-(4-(3-fluoropyrrolidin-1-yl)cyclohexylamino)quinolin-3-yl)(cyclopropyl)methanone], the 50% inhibitory concentration (IC50) at MELK came to 0.0075 µM; in the assay with A549 cells (Homo sapiens, A549, 72 h), 0.2 µM; in the assay on HT-1197 cells it was 0.76 µM; in the assay on T47D cells, 0.17 µM; in the assay on DU4475 cells (Homo sapiens, DU-4475, 72 h), 0.11 µM.
